Measurements taken from ChEMBL document CHEMBL1157539, “Thousands of chemical starting points for antimalarial lead identification” (Nature, 2010).

Tested on: Plasmodium falciparum
Assay: GSK_TCMDC: Inhibition of Plasmodium falciparum 3D7 in whole erythrocytes, using parasite LDH activity as an index of growth.
Format: functional, organism-based

| Structure (SMILES) | XC50 (Plasmodium falciparum, 3D7) [nM] | XC50 [nM] |
| --- | --- | --- |
| CC(C)CNC(=O)c1ccnc(-c2ccc(CNC3Cc4ccccc4C3)cc2)c1 | 790 | – |
| COc1ccc(Cn2c(Nc3cccc(C(F)(F)F)c3)nc3cc(C(=O)NCCN4CCCC4)ccc32)cc1Cl | 830 | – |
| NC(=O)c1cccc(C(=O)Nc2ccc(-c3cccc(-c4nc5cc(F)ccc5[nH]4)c3)cc2)c1 | 865 | – |
| COc1cc2nc(N3CCC(CNC(=O)c4ccc(-c5ccc(C#N)cc5C)cc4)CC3)nc(N)c2cc1OC | 180 | – |
| CC(C)CCN1CCC(Oc2cccc(NC(=O)c3ccc(C(F)(F)F)cc3)c2)CC1 | 630 | – |
| CCCCCCCN1CC[C@@H](CCCc2ccnc3ccc(OCCCCN/C(N)=N/O)cc23)[C@@H](CC)C1 | 952 | – |
| CC1=C(C(=O)NC2CCC(CN3CCC(c4c[nH]c5ccccc45)CC3)CC2)Cc2ccccc21 (stereo not given) | 996 | 833 |
| Cc1cccc2nc(-c3cccc(-c4ccc(NC(=O)c5c[nH]cn5)cc4)c3)[nH]c12 | 722 | – |
| O=C(CCN(Cc1ccco1)c1nc(-c2ccc(F)cc2)nc2ccccc12)NC1CC1 | 1580 | – |
| C[C@@H]1CN(C(c2cccc(O)c2)c2cccc(C(=O)N(C)c3cccc(F)c3)c2)[C@@H](C)CN1C(c1cccc(O)c1)c1cccc(C(=O)N(C)c2cccc(F)c2)c1 (stereo not given in full) | 918 | – |
| N#Cc1ccc2c(c1)CCN(CCC1CCC(NC(=O)c3cc4ccc(Br)cc4[nH]3)CC1)C2 (stereo not given) | 756 | – |
| COc1ccc(-c2cccc(NC(=O)c3cccc(C#N)c3)c2)cc1CNC(C)C | 694 | – |
| COc1ccc(CNCc2cccc(-c3cccc(-c4nc5cc(F)ccc5[nH]4)c3)c2)cc1 | 300 | – |
| Cc1cccc2nc(-c3ccc(-c4cccc(CN5CCC(C(N)=O)CC5)c4)cc3)[nH]c12 | 1770 | – |
| CN(C(=O)C1(c2ccc(Cl)cc2)CC1)C1CCN(CCCCCNC(=O)/C=C/c2ccc(Cl)c(Cl)c2)CC1 | 769 | – |
| CCCN1CCN(CC(O)CNC(=O)Nc2ccc(Cl)cc2)CC1 (stereo not given) | 96.9 | – |
| O=C(NC(c1ccccc1)c1ccccc1)C(c1cc2ccccc2o1)N1CCN(C(c2ccccc2)c2ccccc2)CC1 (stereo not given) | 679 | – |
| CCCCCCCN(Cc1ccc(OC(C)(C)C(=O)OCC)cc1)C(=O)Nc1ccccc1OCC | 1030 | – |
| Cc1cc(NC(=O)Nc2cccc(Cl)c2Cl)c2ccccc2n1 | 744 | – |
| Cc1cc(-c2ccc(CNC3Cc4ccccc4C3)cc2)ccc1S(=O)(=O)NCCN1CCCC1 | 704 | – |
| Cc1ccc(-c2ccc(Cl)cc2Oc2cnc(N)nc2N)o1 | 1080 | – |
| CN1CCN(CCCSc2ccc3c(c2)ncn3-c2cc(OCc3ccccc3C(F)(F)F)c(C(N)=O)s2)CC1 | 439 | – |
| O=[N+]([O-])c1ccc2c(-c3ccccc3)c(-c3ccccc3)n(O)c2c1 | 989 | – |
| Cc1cc2cc(CNCCc3ccccc3Br)ccc2nc1N | 243 | – |

| Structure (SMILES) | XC50 (Plasmodium falciparum, 3D7) [nM] | XC50 [nM] |
| --- | --- | --- |
| COc1cc(NC(=O)Nc2ccc([N+](=O)[O-])cc2OC)c(OC)cc1Cl | 1470 | – |
| Cc1[nH]c(C)c(-c2ccc(-c3cccc(Cl)c3)nc2)c(=O)c1Br | 318 | – |
| CCCN(CCC)C(=O)c1cc(C(=O)N[C@@H](Cc2ccccc2)[C@H](O)CNC(C)(C)c2cccc(C(F)(F)F)c2)cc(N2CCCCS2(=O)=O)c1 | 36.2 | – |
| COc1cccc(OC2CCN(C(=O)c3cc(C(C)(C)C)nn3Cc3ccccc3)CC2)c1 | 254 | – |
| O=C(Nc1ccc(C(F)(F)F)cc1)c1ccc(S(=O)(=O)NCC2CCCN(CC3CCCCC3)C2)cc1 (stereo not given) | 152 | – |
| CCOC(=O)c1c(C)n(-c2ccccc2)c2ccc(OC(=O)c3ccc(S(=O)(=O)N(CC)CC)cc3)cc12 | 748 | – |
| CCCCCc1ccc(N2C(N)=NC(N)=NC2(C)C)cc1 | 131 | – |
| Cn1ccnc1CNC(=O)c1ccc(-c2cccc(-c3nc4cc(F)ccc4[nH]3)c2)cc1 | 980 | – |
| COc1cc2nccc(Nc3ccc(NC(=O)c4ccc(C)cc4)c(O)c3)c2cc1OC | 174 | – |
| O=C(NCCCN1CCC(NC(=O)c2ccc(-c3cccnc3)cc2)CC1)c1ccc(Cl)c(Cl)c1 | 854 | – |
| CCOc1ccc(-c2nc(NC(=O)CS(=O)(=O)c3ccccc3)sc2C)cc1 | 510 | – |
| COc1ccc(CNCCc2cccs2)cc1-c1ccc(OC)c(S(=O)(=O)NCCN2CCCC2)c1 | 1410 | – |
| CC(=O)Oc1cc(OCc2ccccc2)c(OC(C)=O)c(OCc2ccccc2)c1 | 407 | – |
| CC(=O)c1c(Nc2c(C)cc(C)cc2C)oc(C)cc1=O | 481 | – |
| CC1CCC2(CC1)N=C(N)N=C(N)N2OCc1ccc(Br)c2ccccc12 (stereo not given) | 216 | – |
| O=C(Nc1ccc(Cl)c(Cl)c1)Nc1ccc(F)c([N+](=O)[O-])c1 | 696 | – |
| CCc1c[nH]c2c(N(c3ccccc3)S(C)(=O)=O)cc(C(=O)N[C@@H](Cc3ccccc3)[C@H](O)CNCc3cccc(C(F)(F)F)c3)cc12 | 997 | – |
| COc1ccc(NC(=O)CSc2nc(-c3ccccc3Cl)ns2)cc1OC | 759 | – |
| O=C(NCCCCN1CCC(c2cccc3ccccc23)CC1)c1ccc(NC(=O)c2ccc(Cl)cc2)cc1 | 784 | – |
| CCOc1ccc(Br)cc1/C=C/C(=O)Nc1ccc2c(c1)C1CCC2N1C (stereo not given) | 1050 | – |
| Cc1nc(C)c(-c2ccc(Oc3cc(Cl)cc(Cl)c3)cc2)c(O)c1Br | 242 | – |
| O=C(Nc1nc2cc(S(=O)(=O)NCCCN3CCOCC3)ccc2n1CCCn1ccnc1)c1ccc(Cl)cc1 | 925 | – |
| COC(=O)c1cccc(OCCNC2CCN(C[C@H](O)c3ccnc4ccc(OC)cc34)CC2)c1 | 342 | – |
| O=C(NC1CC1)c1cnc(N2CCN(Cc3c(F)cccc3Cl)CC2)c(Cl)c1 | 905 | – |

| Structure (SMILES) | XC50 (Plasmodium falciparum, 3D7) [nM] | XC50 [nM] |
| --- | --- | --- |
| Cc1ccc(NC(C)C(=O)Nc2ccc(C#N)cc2)cc1S(=O)(=O)N1CCCCC1 (stereo not given) | 545 | – |
| COc1cc(-n2cnc3cc(-c4ccc(Cl)cc4)sc3c2=O)ccc1OCCN1CCC(c2cccc(NC(C)=O)c2)CC1 | 553 | – |
| NC(=O)c1sc(-n2cnc3ccc(OCC4CCNCC4)cc32)cc1OCc1ccccc1C(F)(F)F | 753 | – |
| Ic1cc(CNC2CCCCC2)ccc1OCc1cccc(COc2ccc(CNC3CCCCC3)cc2I)c1 | 829 | – |
| CN1CCCc2ccc(NC(=O)c3cc(-c4ccc(Cl)cc4)cs3)cc2C1 | 793 | – |
| O=C(CCc1c[nH]cn1)Nc1ccc(-c2ccc(-c3nc4ccccc4[nH]3)cc2)cc1 | 705 | – |
| COc1ccc2nc3cc(Cl)ccc3c(Nc3ccc(Sc4ccc(Nc5c6ccc(Cl)cc6nc6ccc(OC)cc56)cc4)cc3)c2c1 | 199 | – |
| Cc1cccc(CNc2nc(C)cc(N[C@@H](Cc3ccccc3)C(=O)NCCOc3ccccc3)n2)c1 | 914 | – |
| O=C(Nc1ccc(CN2CCN(S(=O)(=O)c3ccc(Cl)s3)CC2)cc1)c1cccs1 | 894 | – |
| Oc1ccc(CCNc2nc(NCc3ccccc3-c3cccc(Cl)c3)nc(N3CCNCC3)n2)cc1 | 1280 | – |
| COc1cc(C(=O)N2CCOC(CCN3CCc4c(c5ccccc5n4C)C3)(c3ccc(Cl)c(Cl)c3)C2)cc(OC)c1OC (stereo not given) | 357 | – |
| CC[C@H]1C[N+]2([O-])CC[C@@H]1C[C@H]2[C@H](O)c1cc(-c2ccccc2)nc2ccc(OC)cc12 | 840 | – |
| Cc1cc(N[C@@H](CC(C)C)C(=O)NCCOc2ccccc2)nc(NCCc2ccccc2)n1 | 1510 | – |
| CC(C)CCN1CCC(Oc2ccc(NC(=O)c3ccccc3)cc2Cl)CC1 | 1300 | – |
| O=C(/C=C/c1ccc(Cl)c(Cl)c1)NC1CCN(Cc2ccc(O)cc2)C1 (stereo not given) | 952 | – |
| N#Cc1ccc(-c2ccc(C(=O)NCCCCN3CCC(c4cn(CCO)c5ccccc45)CC3)cc2)cc1 | 954 | – |
| CC(C)[C@H](NC(=O)c1ccc(O)c(-c2ccc(Cl)c(Cl)c2)c1)C(=O)NCCN1CCCC1 | 929 | – |
| CSc1ccc2ccccc2c1CNCCCCCCNCc1c(SC)ccc2ccccc12 | 797 | – |
| CC(C)(C)NCc1cc(Nc2ccnc3cc(Cl)ccc23)ccc1F | 30.3 | – |
| COc1ccc(Nc2cc(C)c3cc(NC(=O)c4ccncc4)ccc3n2)cc1 | 908 | – |
| c1ccc2[nH]c(CN(Cc3nc4ccccc4[nH]3)Cc3nc4ccccc4[nH]3)nc2c1 | 668 | – |
| CCN(CCO)CCc1cccc(Nc2nccc(-c3c(-c4ccc(NC(=O)N(CC)CC)cc4)nn4ccccc34)n2)c1 | 1110 | – |
| O=C(/C=C/c1ccccc1O)NC1CCC(CN2CCC(c3c[nH]c4ccccc34)CC2)CC1 (stereo not given) | 756 | 461 |
| CCCCCCN1CCC(NCc2cccc(C#N)c2)CC1 | 778 | – |

| Structure (SMILES) | XC50 (Plasmodium falciparum, 3D7) [nM] | XC50 [nM] |
| --- | --- | --- |
| COc1cccc(Nc2nccc(NCC(O)c3cccc(C(F)(F)F)c3)n2)c1 (stereo not given) | 702 | – |
| CCN(CC)CCN(Cc1ccc(-c2ccc(C(F)(F)F)cc2)cc1)C(=O)Cn1c(CCc2ccc(F)cc2)nc(=O)c2ccccc21 | 1070 | – |
| COc1ccc2nccc([C@@H](O)CN3CCC(NC(=O)c4ccc(Cl)c(OC)c4)CC3)c2c1 | 792 | – |
| CN(Cc1cccc(F)c1)C1CCN(c2cc(NC(=O)c3ccc(F)cc3)ccn2)CC1 | 1160 | – |
| Cc1cc(N)c2cc(NC(=O)c3cc4ccccc4s3)ccc2n1 | 115 | – |
| CCSc1nc2sc3c(c2c(=O)n1-c1ccccc1)CCN(C)C3 | 457 | – |
| O=C(/C=C/c1ccc(Cl)cc1)NCCCCCN1CCN(C(=O)C=Cc2ccc(Cl)c(Cl)c2)CC1 | 987 | – |
| Cc1c[nH]c2ccc(/C=C/C(=O)NC3CCC(CCN4CCc5ccc(C#N)cc5CC4)CC3)cc12 (stereo not given) | 828 | – |
| COc1ccc(Cl)cc1N1CCN(CCCNC(=O)c2ccc(-c3nc4cnccc4[nH]3)c(Br)c2)CC1 | 1150 | – |
| CC(C)CCN1CCCN(Cc2cccc(NC(=O)c3ccc(-c4ccccc4)cc3)c2)CC1 | 888 | – |
| Cc1cc(C2NC(=O)c3ccccc3N2)c(C)n1-c1ccc2c(c1)OCO2 (stereo not given) | 731 | – |
| COc1ccc(NC(=O)[C@H](Cc2ccccc2)Nc2nc(NCCN3CCCC3)ncc2C)cc1 | 988 | – |
| CN(C)CCNCc1cccc(-c2ccc3c(Nc4ccc(Oc5ccccc5)cc4)ccnc3c2)c1 | 441 | – |
| c1ccc(-c2n[nH]cc2Nc2ccnc3ccccc23)nc1 | 819 | – |
| CCCCCC(C)NC[C@@H](O)[C@H](Cc1ccccc1)NC(=O)c1cc(NCC)cc(N2CCCCS2(=O)=O)c1 (stereo not given in full) | 398 | – |
| COc1ccc(C(=O)N[C@@H](CC(C)C)C(=O)NC2CC[C@@H](C)N(C(=O)Nc3ccc(Cl)cc3)CC2=O)cc1OCCN1CCOCC1 (stereo not given in full) | 152 | – |
| CC1CCC2(CC1)N=C(N)N=C(N)N2OCc1cc2ccccc2c2ccccc12 (stereo not given) | 243 | – |
| CN(C(=O)/C=C/c1cc(C(F)(F)F)ccc1F)C1CCN(CCCCCNC(=O)/C=C/c2ccc(Cl)c(Cl)c2)CC1 | 287 | – |
| FC(F)(F)c1ccc2[nH]c(-c3cccc(-c4cccc(CNCCN5CCNCC5)c4)c3)nc2c1 | 937 | – |
| Cc1cccc(-c2ccc(NC(=O)C3CCN(Cc4cccc(O)c4)CC3)cc2)c1 | 975 | – |
| COc1ccc2nccc([C@@H](O)CN3CCC(NCc4ccc5c(c4)NC(=O)C(C)S5)CC3)c2c1 (stereo not given in full) | 200 | – |
